Source: US10287305B2, “Substituted piperidine compound and use thereof” (Takeda Pharmaceutical Company Limited, priority 2016, dated 2019)

Molecular target: human orexin type 2 receptor (hOX2R) (Homo sapiens (Human), UniProt O43614)
Test: Measurement of orexin type 2 receptor agonist activity (Experimental Example 2-1, FLIPR TETRA, intracellular Ca2+)
Type: cell-based
Details: CHO dhfr- cells expressing hOX2R, FLIPR TETRA, Fluo-4AM; for Emax: read-out: Emax (%)

Chain of human orexin type 2 receptor (hOX2R) (O43614 whole entry): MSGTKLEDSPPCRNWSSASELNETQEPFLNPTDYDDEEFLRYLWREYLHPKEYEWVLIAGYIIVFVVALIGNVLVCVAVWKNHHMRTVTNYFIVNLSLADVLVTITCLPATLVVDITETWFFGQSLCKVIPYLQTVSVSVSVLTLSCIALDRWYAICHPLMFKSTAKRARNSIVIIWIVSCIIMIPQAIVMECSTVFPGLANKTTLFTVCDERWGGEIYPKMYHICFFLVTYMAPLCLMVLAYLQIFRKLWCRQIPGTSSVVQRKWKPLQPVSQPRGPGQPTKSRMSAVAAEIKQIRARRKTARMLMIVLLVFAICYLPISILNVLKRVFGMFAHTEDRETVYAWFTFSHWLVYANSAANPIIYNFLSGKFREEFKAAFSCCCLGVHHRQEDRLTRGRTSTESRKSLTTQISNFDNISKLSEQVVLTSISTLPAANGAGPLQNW

SMILES	EC50 [nM]	Emax [%]	Emax (%)
CS(=O)(=O)N[C@H]1CCCN[C@H]1CO[C@H]1CC[C@@H](c2cc(F)cc(F)c2F)CC1 [Example 239, N-((2R,3S)-2-(((cis-4-(2,3,5-trifluorophenyl)cyclohexyl)oxy)methyl)piperidin-3-yl)methanesulfonamide]	280	102	
CC(=O)N1CCC[C@H](NS(C)(=O)=O)[C@@H]1CO[C@H]1CC[C@@H](c2ccccc2F)CC1 [Example 240, N-((2R,3S)-1-acetyl-2-(((cis-4-(2-fluorophenyl)cyclohexyl)oxy)methyl)piperidin-3-yl)methanesulfonamide]	24	107	
COC(=O)N1CCC[C@H](NS(C)(=O)=O)[C@@H]1CO[C@H]1CC[C@@H](c2cc(F)cc(F)c2)CC1 [Example 241, methyl (2R,3S)-2-(((cis-4-(3,5-difluorophenyl)cyclohexyl)oxy)methyl)-3-((methylsulfonyl)amino)piperidine-1-carboxylate]	1.2	97	
CS(=O)(=O)N[C@H]1CCCN(C(=O)C2CC2)[C@H]1CO[C@H]1CC[C@@H](c2cc(F)cc(F)c2)CC1 [Example 242, N-((2R,3S)-1-(cyclopropylcarbonyl)-2-(((cis-4-(3,5-difluorophenyl)cyclohexyl)oxy)methyl)piperidin-3-yl)methanesulfonamide]	0.88	99	
CC(=O)N1CCC[C@H](NS(C)(=O)=O)[C@@H]1CO[C@H]1CC[C@@H](c2cc(F)cc(F)c2F)CC1 [Example 243, N-((2R,3S)-1-acetyl-2-(((cis-4-(2,3,5-trifluorophenyl)cyclohexyl)oxy)methyl)piperidin-3-yl)methanesulfonamide]	17	97	
COC(=O)N1CCC[C@H](NS(C)(=O)=O)[C@@H]1CO[C@H]1CC[C@@H](c2cc(F)cc(F)c2F)CC1 [Example 244, methyl (2R,3S)-3-((methylsulfonyl)amino)-2-(((cis-4-(2,3,5-trifluorophenyl)cyclohexyl)oxy)methyl)piperidine-1-carboxylate]	2.6	97	
CS(=O)(=O)N[C@H]1CCCN(C(=O)C2CC2)[C@H]1CO[C@H]1CC[C@@H](c2cc(F)cc(F)c2F)CC1 [Example 245, N-((2R,3S)-1-(cyclopropylcarbonyl)-2-(((cis-4-(2,3,5-trifluorophenyl)cyclohexyl)oxy)methyl)piperidin-3-yl)methanesulfonamide]	2	97	
CS(=O)(=O)N[C@H]1CCCN(C(=O)C2CC2)[C@H]1COC1CCN(c2ccccc2F)CC1 [Example 246, N-((2R,3S)-1-(cyclopropylcarbonyl)-2-(((1-(2-fluorophenyl)piperidin-4-yl)oxy)methyl)piperidin-3-yl)methanesulfonamide]	730	113	
CS(=O)(=O)N[C@H]1CCCN(C(=O)C2CC2)[C@H]1CO[C@H]1CC[C@@H](c2cccc(F)c2F)CC1 [Example 250, N-((2R,3S)-1-(cyclopropylcarbonyl)-2-(((cis-4-(2,3-difluorophenyl)cyclohexyl)oxy)methyl)piperidin-3-yl)methanesulfonamide]	1.7	105	
COC(=O)N1CCC[C@H](NS(C)(=O)=O)[C@@H]1CO[C@H]1CC[C@@H](c2c(F)ccc(F)c2F)CC1 [Example 257, methyl (2R,3S)-3-((methylsulfonyl)amino)-2-(((cis-4-(2,3,6-trifluorophenyl)cyclohexyl)oxy)methyl)piperidine-1-carboxylate]		97	
CS(=O)(=O)N[C@H]1CCCN(C(=O)C2CC2)[C@H]1CO[C@H]1CC[C@@H](c2c(F)ccc(F)c2F)CC1 [Example 258, N-((2R,3S)-1-(cyclopropylcarbonyl)-2-(((cis-4-(2,3,6-trifluorophenyl)cyclohexyl)oxy)methyl)piperidin-3-yl)methanesulfonamide]	0.72	101	
CS(=O)(=O)N[C@H]1CCCN[C@H]1CO[C@H]1CC[C@@H](c2ccccc2F)CC1 [Example 260, N-((2R,3S)-2-(((cis-4-(2-fluorophenyl)cyclohexyl)oxy)methyl)piperidin-3-yl)methanesulfonamide]	550	99	
CC(C)OC(=O)N1CCC[C@H](NS(C)(=O)=O)[C@@H]1CO[C@H]1CC[C@@H](c2cccc(F)c2)CC1 [Example 264, isopropyl (2R,3S)-2-(((cis-4-(3-fluorophenyl)cyclohexyl)oxy)methyl)-3-((methylsulfonyl)amino)piperidine-1-carboxylate]	21	91	
COC(=O)N1CCC[C@H](NS(C)(=O)=O)[C@@H]1CO[C@H]1CC[C@@H](c2ccccc2F)CC1 [Example 267, methyl (2R,3S)-2-(((cis-4-(2-fluorophenyl)cyclohexyl)oxy)methyl)-3-((methylsulfonyl)amino)piperidine-1-carboxylate]	3.4	94	
CS(=O)(=O)N[C@H]1CCCN(C(=O)C2CC2)[C@H]1CO[C@H]1CC[C@@H](c2ccccc2F)CC1 [Example 268, N-((2R,3S)-1-(cyclopropylcarbonyl)-2-(((cis-4-(2-fluorophenyl)cyclohexyl)oxy)methyl)piperidin-3-yl)methanesulfonamide]	1.5	103	
CS(=O)(=O)N[C@H]1CCCN(C(=O)OC2CC2)[C@H]1CO[C@H]1CC[C@@H](c2cccc(F)c2)CC1 [Example 272, cyclopropyl (2R,3S)-2-(((cis-4-(3-fluorophenyl)cyclohexyl)oxy)methyl)-3-((methylsulfonyl)amino)piperidine-1-carboxylate]	28	96	
COC(=O)N1CCC[C@H](NS(C)(=O)=O)[C@@H]1CO[C@H]1CC[C@@]2(CC1)OCc1ccccc12 [Example 274, methyl cis-3-((methylsulfonyl)amino)-2-(((1r,4′r)-3H-spiro[2-benzofuran-1,1′-cyclohexan]-4′-yloxy)methyl)piperidine-1-carboxylate]	260	118	
COC(=O)N1CCC[C@H](NS(C)(=O)=O)[C@@H]1CO[C@H]1CC[C@]2(CC1)OCc1ccccc12 [Example 275, methyl cis-3-((methylsulfonyl)amino)-2-(((1s,4′s)-3H-spiro[2-benzofuran-1,1′-cyclohexan]-4′-yloxy)methyl)piperidine-1-carboxylate]	3100	87	
CS(=O)(=O)N[C@H]1CCCN(C(=O)OCC(F)(F)F)[C@H]1CO[C@H]1CC[C@@H](c2cccc(F)c2)CC1 [Example 276, 2,2,2-trifluoroethyl (2R,3S)-2-(((cis-4-(3-fluorophenyl)cyclohexyl)oxy)methyl)-3-((methylsulfonyl)amino)piperidine-1-carboxylate]		95	
COC(=O)N1CCC[C@H](NS(C)(=O)=O)[C@@H]1CO[C@H]1CC[C@@H](c2ccccc2OC)CC1 [Example 277, methyl (2R,3S)-2-(((cis-4-(2-methoxyphenyl)cyclohexyl)oxy)methyl)-3-((methylsulfonyl)amino)piperidine-1-carboxylate]	2.9	95	
CCNC(=O)N1CCC[C@H](NS(C)(=O)=O)[C@@H]1CO[C@H]1CC[C@@H](c2ccccc2C(F)(F)F)CC1 [Example 282, (2R,3S)-N-ethyl-3-((methylsulfonyl)amino)-2-(((cis-4-(2-(trifluoromethyl)phenyl)cyclohexyl)oxy)methyl)piperidine-1-carboxamide]	0.55		93
